From patent publication US20220040319A1, “METHODS OF TREATING OCULAR CANCER USING ANTI-MET ANTIBODIES AND BISPECIFIC ANTIGEN BINDING MOLECULES THAT BIND MET” (Regeneron Pharmaceuticals, Inc., priority 2019, published 2022)

Columns and labels:
[1] = test system: MET pathway in NCI-H596 cells; experiment: MET and ERK phosphorylation in NCI-H596 cells, immunoblot; format: cell-based, human; details: fold change relative to control, HGF 50 ng/ml, antibody 10 μg/ml
Procedure: 250,000 NCI-H596 cells were seeded in a 12 well plate and cultured in RPMI Media supplemented with 10% FBS. […] The cells were subsequently incubated in 5% CO2 at 37° C. After 0, 2, 6 or 18 hours, cell lysates were prepared, protein content was normalized and immunoblot analysis was performed. MET phosphorylation and ERK phosphorylation were quantified with the ImageJ image processing program (T. Collins, BioTechniques 43: S25-S30, 2007). Phosphorylation levels were normalized to the Tubulin loading control and are expressed as fold change relative to control treatment.

[2] = test system: NCI-H596 cells; experiment: NCI-H596 growth in soft agar, AlamarBlue, two weeks; format: cell-based, human; details: antibody 5 μg/ml (combination 2.5 μg/ml each), HGF 100 ng/mL
Procedure: The effect of a MET×MET bispecific antibody on the growth of human non-small cell lung cancer (NSCLC) cells (NCI-H596) was assessed in vitro. 10,000 NCI-H596 lung adenosquamous carcinoma cells (Nair et al., J. Nat'l. Cancer Inst. 86(5): 378-383, 1994) were seeded in 96 well plates on a layer of 0.66% agar in media supplemented with 1% fetal bovine serum (FBS). The cells were cultured in RPMI 1640 media supplemented with 1% FBS with 0.3% agarose. […] The cells were subsequently incubated with 5% CO2 at 37° C. After two weeks, relative cell growth was determined by measuring the reduction of the indicator dye, ALAMAR BLUE® (Thermo Fischer Scientific, Waltham, Mass.), to its highly fluorescent form in a SPECTRAMAX® M3 plate reader (Molecular Devices, Sunnyvale, Calif.). Increasing fluorescence correlates with cell growth. Table 18 and FIG. 14 depict the relative NCI-H596 cell growth for each antibody treatment normalized to control (no treatment) NCI-H596 cell growth.

For “HGF: hepatocyte growth factor, MET agonist ligand [reference compound]”, which “Phospho-ERK (mean ± SD)” value ([1]; 2 hours) is on record?
Its value is 16.7 ± 1.6.

What about the “Phospho-MET (mean ± SD)” value ([1]; 2 hours) of the same substance?
The value was 202.3 ± 38.7.

And the “Phospho-ERK (mean ± SD)” value ([1]; 6 hours)?
Its value is 12.4 ± 3.9.

What about the “Phospho-MET (mean ± SD)” value ([1]; 6 hours) of the same substance?
The value was 38.9 ± 4.9.

What about the “Phospho-ERK (mean ± SD)” value ([1]; 18 hours) of the same substance?
The value was 12.4 ± 0.9.

What about the “Phospho-MET (mean ± SD)” value ([1]; 18 hours) of the same substance?
The value was 59.2 ± 24.4.

What about the “Relative Cell Growth (n = 3)” value [2] of the same substance?
The value was 7.877.
